Data as given in US20110118116A1, “Azolin-2-ylamino Compounds for Combating Animal Pests” (priority 2008, published 2011).

What was measured:
Type in all cases: in vivo
[1] = test system: Cowpea Aphid (Aphis craccivora); assay: Cowpea aphid test, colonized potted cowpea plants sprayed; settings: spray, population reduction recorded after 24, 72 and 120 hours, read-out: mortality in comparison with untreated controls
Description: III. Cowpea Aphid (Aphis craccivora)
(§1) The active compounds were formulated in 50:50 acetone: water and 100 ppm Kinetic® surfactant.
Potted cowpea plants colonized with 100-150 aphids of various stages were sprayed after the pest population has been recorded. Population reduction was recorded after 24, 72, and 120 hours.

[2] = test system: Green Peach Aphid (Myzus persicae); assay: Green peach aphid test, leaves of infested pepper plants dipped; settings: 120 h, dip, aphid mortality determined after 5 days, read-out: mortality in comparison with untreated controls
Description: II. Green Peach Aphid (Myzus persicae)
as §1
(§2) Pepper plants in the 2nd leaf-pair stage (variety ‘California Wonder’) are infested with approximately 40 laboratory-reared aphids by placing infested leaf sections on top of the test plants. The leaf sections are removed after 24 hours. The leaves of the intact plants are dipped into gradient solutions of the test compound. Aphid mortality on the treated plants, relative to mortality on check plants, is determined after 5 days.

Silverleaf Whitefly = assay: Silverleaf whitefly test, cotton cotyledons dipped, adults introduced; settings: Bemisia argentifolii, 72 h, cotton plants, dip, mortality assessed 3 days after treatment, read-out: mortality in comparison with untreated controls
Description: as §1
Selected cotton plants were grown to the cotyledon state (one plant per pot). The cotyledons were dipped into the test solution to provide complete coverage of the foliage and placed in a well-vented area to dry. Each pot with treated seedling was placed in a plastic cup and 10 to 12 whitefly adults (approximately 3-5 day old) were introduced. The insects were colleted using an aspirator and a 0.6 cm, non-toxic Tygon® tubing (R-3603) connected to a barrier pipette tip. The tip, containing the collected insects, was then gently inserted into the soil containing the treated plant, allowing insects to crawl out of the tip to reach the foliage for feeding. The cups were covered with a re-usable screened lid (150 micron mesh polyester screen PeCap from Tetko Inc). Test plants were maintained in the holding room at about 25 °C and 20-40% relative humidity for 3 days avoiding direct exposure to the fluorescent light (24 hour photoperiod) to prevent trapping of heat inside the cup. Mortality was assessed 3 days after treatment of the plants.

[3] = test system: Cotton Aphid (Aphis gossypii); assay: Cotton aphid test, cotyledons of infested cotton plants dipped; settings: 120 h, dip, aphid mortality determined after 5 days, read-out: mortality in comparison with untreated controls
Description: I. Cotton Aphid (Aphis gossypii)
as §1
as §2, with “Cotton” for “Pepper”, “cotyledon” for “2nd leaf-pair”, “‘Delta Pine’)” for “‘California Wonder’)”, “100” for “40”, “cotyledons” for “leaves”

Row | Compound | mortality at 300 ppm [1] | mortality at 300 ppm [2] | mortality at 300 ppm (Silverleaf Whitefly) | mortality at 300 ppm [3]
1 | Cc1cccc(C#CCC(NC(=S)NCCO)c2cccc(C)c2C)c1 (stereo not drawn) [Example 2, 1-[1-(2,3-dimethyl-phenyl)-4-m-tolyl-but-3-ynyl]-3-(2-hydroxy-ethyl)-thiourea] | > 70% | – | – | –
2 | Cc1cccc(C#CCC(NC2=NCCS2)c2cccc(C)c2C)c1 (stereo not drawn) [Example 13, (4,5-dihydro-thiazol-2-yl)-[1-(2,3-dimethyl-phenyl)-4-m-tolyl-but-3-ynyl]-amine] | > 70% | > 70% | > 70% | > 70%
3 | C#CCC(NC1=NCCS1)c1cccc(C)c1C (stereo not drawn) [Example 14, (4,5-dihydro-thiazol-2-yl)-[1-(2,3-dimethyl-phenyl)-but-3-ynyl]-amine] | > 70% | – | – | –
4 | Cc1cccc(C(CC#Cc2cccc(Cl)c2)NC2=NCCS2)c1C (stereo not drawn) [Example 15, [4-(3-chloro-phenyl)-1-(2,3-dimethyl-phenyl)-but-3-ynyl]-(4,5-dihydro-thiazol-2-yl)-amine] | > 70% | > 70% | – | > 70%
